Among the test systems are U251 CNS; UACC-257 melanoma; OVCAR-8 ovarian; COLO 205 colon; SR leukemia; SNB-19 CNS; T-47D breast; OVCAR-5 ovarian; HCC-2998 colon; MOLT-4 leukemia.
Test in all cases: growth of human tumour cells (NCI), 48 h

Values joined by “and” are separate entries in the source; they are usually repeats but may differ in a detail not shown here. Equal entries are not always repeated.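 Growth conditions: 96-well plates. Treatment: test compound, 48 hours, 5 concentrations. Analysis: linear interpolation between bracketing concentrations; unreached endpoints set to highest concentration. At the GI50, growth is halved. Definition used: TGI = concentration required for complete inhibition of growth.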 Where only a bound is given, the exact number is not on record here.

For the compound `CCCCC[C@H]1CC=C2C(=O)C=C[C@@H]2CC=CCCCC(=O)O[C@@H](CCCCC)CC=C2C(=O)C=C[C@@H]2CC=CCCCC(=O)O[C@@H](CCCCC)CC=C2C(=O)C=C[C@@H]2CC=CCCCC(=O)O1`, the GI50 in the experiment on U251 CNS was 0.158 µM; in the experiment on UACC-257 melanoma, 0.456 µM; in the experiment on OVCAR-8 ovarian it was 0.277 µM; with COLO 205 colon it was 0.169 µM; with SR leukemia, 0.229 µM; in the experiment on SNB-19 CNS, 0.55 µM. Besides, the GI50 in the experiment on T-47D breast was 0.195 µM; with OVCAR-5 ovarian, 1.08 µM; in the experiment on HCC-2998 colon it was 0.264 µM; in the experiment with MOLT-4 leukemia it was 0.266 µM. In addition, the TGI in the experiment on U251 CNS is 0.315 µM; with UACC-257 melanoma, 2.2 µM; with OVCAR-8 ovarian it was more than 8.75 µM; in the experiment with COLO 205 colon it was 0.368 µM; with SR leukemia, 1.34 µM; in the experiment with SNB-19 CNS, more than 8.75 µM. For the same compound, the TGI with T-47D breast is 0.713 µM; with OVCAR-5 ovarian it was more than 8.75 µM; in the experiment on HCC-2998 colon, 0.888 µM; in the experiment on MOLT-4 leukemia, more than 8.75 µM.
As for `CCOc1cc(C(=O)O)c2c(ccc3ccc(OC)c(OC)c32)c1OC`, the TGI in the experiment on U251 CNS, with UACC-257 melanoma, with OVCAR-8 ovarian, in the experiment on COLO 205 colon, with SR leukemia and with SNB-19 CNS was more than 100 µM throughout. Also, the TGI with T-47D breast, in the experiment on OVCAR-5 ovarian, with HCC-2998 colon and with MOLT-4 leukemia was more than 100 µM in each case.
In the case of `COc1cc(OC)c(/C=C/C(=O)c2ccc(Nc3ncnc4ccccc34)cc2)c(OC)c1`, the GI50 in the experiment on U251 CNS is 0.686 µM; in the experiment with UACC-257 melanoma, 1.24 µM; with OVCAR-8 ovarian, 1.34 µM; with COLO 205 colon, 0.614 µM; in the experiment with SR leukemia, 0.142 µM; in the experiment with SNB-19 CNS, 1.23 µM. Moreover, the GI50 is 1.51 µM with T-47D breast, 1.88 µM in the experiment with OVCAR-5 ovarian, 1.94 µM in the experiment on HCC-2998 colon and 0.898 µM in the experiment with MOLT-4 leukemia. The TGI with U251 CNS turned out to be 2.73 µM; in the experiment with UACC-257 melanoma, 3.89 µM; with OVCAR-8 ovarian, 3.54 µM; in the experiment on COLO 205 colon, 2.22 µM; with SR leukemia it was 1.1 µM; in the experiment on SNB-19 CNS, 14.5 µM. For the same compound, the TGI in the experiment on T-47D breast is 14.3 µM; in the experiment with OVCAR-5 ovarian it was 5.32 µM; with HCC-2998 colon, 14.2 µM; with MOLT-4 leukemia it was more than 100 µM.
Turning to `COC1CC(C)C(OC)c2cc(O)cc(c2O)NC(=O)/C(C)=C/C=C\C(C)C(OC(N)=O)/C(C)=C\C(C)C1OC` (centres undefined), the GI50 was 0.614 µM in the experiment with U251 CNS; 0.561 µM and 0.693 µM in the experiment on UACC-257 melanoma; 0.704 µM and 0.602 µM with OVCAR-8 ovarian; 0.0414 µM and 0.0785 µM with COLO 205 colon; 0.191 µM and 0.11 µM with SR leukemia; 0.649 µM in the experiment with SNB-19 CNS. Besides, the GI50 with T-47D breast was 0.446 µM; with OVCAR-5 ovarian, 0.549 µM; in the experiment with HCC-2998 colon it was 0.318 µM; in the experiment on MOLT-4 leukemia, 0.0437 µM and 0.0746 µM. For the same compound, the TGI in the experiment on U251 CNS is 16.1 µM and 23.6 µM; with UACC-257 melanoma it was 10.3 µM and 10.5 µM; in the experiment with OVCAR-8 ovarian it was 11.8 µM and 26.9 µM; in the experiment on COLO 205 colon it was 7.12 µM and 2.8 µM; in the experiment on SR leukemia, 2 µM and 6.31 µM; in the experiment on SNB-19 CNS it was 23.7 µM and 72.3 µM. For the same compound, the TGI in the experiment with T-47D breast was 18.6 µM and 12.9 µM; with OVCAR-5 ovarian, 20.5 µM and 11 µM; in the experiment with HCC-2998 colon, 9.78 µM and 11.3 µM.
Consider `Nc1ncn(C2OC(COP(=O)(O)O)C(O)C2O)c(=O)n1` (centres undefined), for which the TGI with U251 CNS was more than 100 µM; in the experiment on UACC-257 melanoma, more than 100 µM; with OVCAR-8 ovarian, more than 68.9 µM; with COLO 205 colon, more than 100 µM; in the experiment with SR leukemia it was more than 100 µM; in the experiment on SNB-19 CNS it was more than 100 µM. Besides, the TGI is more than 100 µM in the experiment with T-47D breast, more than 100 µM in the experiment with OVCAR-5 ovarian, more than 100 µM in the experiment on HCC-2998 colon and more than 59.2 µM with MOLT-4 leukemia.
In the case of `COc1cc(OC)cc(-c2nc3sccn3c2/C=N/N=C(N)N)c1`, the GI50 was 5.2 µM in the experiment on U251 CNS; 7.74 µM in the experiment with UACC-257 melanoma; 9.85 µM with OVCAR-8 ovarian; 3.11 µM with COLO 205 colon; 8.64 µM in the experiment on SR leukemia; 9.29 µM in the experiment on SNB-19 CNS. Besides, the GI50 is 7.23 µM in the experiment with T-47D breast, 7.25 µM in the experiment on OVCAR-5 ovarian, 7.55 µM with HCC-2998 colon and 10.9 µM in the experiment with MOLT-4 leukemia. In addition, the TGI in the experiment with U251 CNS stood at 11.1 µM; in the experiment with UACC-257 melanoma, 16.1 µM; with OVCAR-8 ovarian it was 20.8 µM; with COLO 205 colon it was 15.8 µM; with SR leukemia, 16.1 µM; in the experiment with SNB-19 CNS it was 19.3 µM. The TGI in the experiment on T-47D breast turned out to be 17.6 µM; in the experiment on OVCAR-5 ovarian, 13.8 µM; with HCC-2998 colon it was 14.6 µM; in the experiment with MOLT-4 leukemia, 18.6 µM.
